Experimental data: patent EP4741386A1 (Jiangsu Yahong Meditech Co., Ltd., priority 2023, dated 2025)

target: T1, Recombinant human His6-USP1/His6-UAF1 complex protein (Homo sapiens, UniProt O94782); test: In vitro inhibitory activity against USP1 (Ubiquitin Rhodamine 110 fluorescence detection, 384-well plate); format: biochemical; conditions: Ub-Rho substrate, 1 hour pre-incubation, read after 30 minutes
T1 construct: His6; purchased R&D E-568-050
Method: Test Example 1: In vitro inhibitory activity against USP1 […]
Experimental object: to screen compounds with inhibitory activity against USP1 […] by a fluorescence detection method, using a 384-well plate.
Experimental materials: Recombinant human His6-USP1/His6-UAF1 complex protein (R&D, Cat. No.: E-568-050), Ubiquitin Rhodamine 110 protein (Ub-Rho) (R&D, Cat. No.: U-555-050), 384-well plate (Perkin Elmer, Cat. No.: 6007279); all compounds were dissolved in 100% DMSO to obtain 50 mM stock solutions.
• 1) Preparation of 1 × assay buffer: 1 × assay buffer (modified Tris buffer) was prepared; • 2) Dilution of compounds: the compounds were transferred to an assay plate via Echo.

T1 sequence (O94782 whole entry): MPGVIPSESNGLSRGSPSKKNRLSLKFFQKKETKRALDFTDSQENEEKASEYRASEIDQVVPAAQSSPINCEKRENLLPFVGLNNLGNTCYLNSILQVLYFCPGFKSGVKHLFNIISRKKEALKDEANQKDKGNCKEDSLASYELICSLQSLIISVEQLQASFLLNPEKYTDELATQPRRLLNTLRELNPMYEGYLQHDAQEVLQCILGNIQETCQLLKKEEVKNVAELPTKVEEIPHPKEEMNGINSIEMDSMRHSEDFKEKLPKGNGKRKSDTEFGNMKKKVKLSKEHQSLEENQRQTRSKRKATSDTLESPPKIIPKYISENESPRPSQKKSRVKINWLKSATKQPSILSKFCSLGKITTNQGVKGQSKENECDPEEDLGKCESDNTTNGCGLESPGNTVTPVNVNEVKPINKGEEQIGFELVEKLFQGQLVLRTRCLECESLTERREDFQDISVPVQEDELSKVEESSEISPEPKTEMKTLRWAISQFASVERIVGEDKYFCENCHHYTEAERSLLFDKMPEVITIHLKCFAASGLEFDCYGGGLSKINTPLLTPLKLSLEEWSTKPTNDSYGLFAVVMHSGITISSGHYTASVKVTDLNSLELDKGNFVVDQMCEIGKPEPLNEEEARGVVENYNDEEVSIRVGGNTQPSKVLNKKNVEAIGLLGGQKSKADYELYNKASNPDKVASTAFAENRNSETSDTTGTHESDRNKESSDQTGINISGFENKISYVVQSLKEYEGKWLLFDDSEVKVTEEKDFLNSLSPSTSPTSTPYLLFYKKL
T1 sequence (Q8TAF3 whole entry partner): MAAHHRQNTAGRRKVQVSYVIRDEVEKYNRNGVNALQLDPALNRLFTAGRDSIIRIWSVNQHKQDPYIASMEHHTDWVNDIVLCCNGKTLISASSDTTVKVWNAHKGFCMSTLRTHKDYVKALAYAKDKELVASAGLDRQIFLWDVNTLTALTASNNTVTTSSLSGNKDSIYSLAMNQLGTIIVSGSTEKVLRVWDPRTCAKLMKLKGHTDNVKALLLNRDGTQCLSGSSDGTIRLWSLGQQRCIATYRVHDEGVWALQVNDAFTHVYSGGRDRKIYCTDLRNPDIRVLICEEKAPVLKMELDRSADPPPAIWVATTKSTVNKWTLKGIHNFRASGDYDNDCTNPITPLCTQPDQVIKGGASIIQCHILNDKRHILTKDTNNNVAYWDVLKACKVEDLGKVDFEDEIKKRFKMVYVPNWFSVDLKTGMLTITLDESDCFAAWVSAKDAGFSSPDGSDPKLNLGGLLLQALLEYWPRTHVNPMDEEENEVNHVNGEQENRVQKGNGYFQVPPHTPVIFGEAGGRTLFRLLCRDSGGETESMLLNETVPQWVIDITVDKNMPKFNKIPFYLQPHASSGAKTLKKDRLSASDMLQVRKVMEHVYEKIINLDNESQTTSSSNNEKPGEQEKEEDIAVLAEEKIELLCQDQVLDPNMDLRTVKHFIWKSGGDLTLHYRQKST

Row | IC50 | SMILES
1 | 87 nM | COc1cnc(-c2cncnc2C2CC2)nc1N(C)Cc1ccc(-c2nc(C(F)(F)F)cn2C)cc1 [Example 193, 4'-Cyclopropyl-5-methoxy-N-methyl-N-(4-(1-methyl-4-(trifluoromethyl)-1H-imidazol-2-yl)benzyl)-[2,5'-bipyrimidin]-4-amine]
2 | 8.8 nM | CC(C)c1ccccc1-c1ncc2c(n1)N(CC1CCN(c3nc(C(F)(F)F)cn3C)CC1)C(=O)CO2 [Example 24, 2-(2-Isopropylphenyl)-8-((1-(1-methyl-4-(trifluoromethyl)-1H-imidazol-2-yl)piperidin-4-yl)methyl)-6H-pyrimido[5,4-b][1,4]oxazin-7(8H)-one]
3 | 133 nM | Cn1cc(C(F)F)nc1-c1ccc(CNc2nc(-c3cncnc3C3CC3)nc3ccoc23)cc1 [Example 197, 2-(4-Cyclopropylpyrimidin-5-yl)-N-(4-(4-(difluoromethyl)-1-methyl-1H-imidazol-2-yl)benzyl)furo[3,2-d]pyrimidin-4-amine]
4 | 19 nM | COc1cnc(-c2c(OC)ncnc2C2CC2)nc1N(C)CC12CCC(c3nc(C(F)(F)F)cn3C)(CC1)OC2 [Example 212, 4'-cyclopropyl-5,6'-dimethoxy-N-methyl-N-((1-(1-methyl-4-(trifluoromethyl)-1H-imidazol-2-yl)-2-oxabicyclo[2.2.2]octan-4-yl)methyl)-[2,5'-bipyrimidin]-4-amine]
5 | 31 nM | COc1cnc(-c2cccc3ccn(C)c23)nc1NCc1ccc(-c2nc(C(F)(F)F)cn2C)cc1 [Example 143, 5-Methoxy-2-(1-methyl-1H-indol-7-yl)-N-(4-(1-methyl-4-(trifluoromethyl)-1H-imidazol-2-yl)benzyl)pyrimidin-4-amine]
6 | 300 nM | COc1cnc(-c2c(C)ncnc2OC2CC2)nc1NCC12CCC(c3nc(C(F)(F)F)cn3C)(CC1)CC2 [Example S19]
7 | 28 nM | CC(C)c1ccccc1-c1nc(NCc2ccc3c(c2)CCN(C)C3=O)c2occc2n1 [Example 77, 6-(((2-(2-Isopropylphenyl)furo[3,2-d]pyrimidin-4-yl)amino)methyl)-2-methyl-3,4-dihydroisoquinolin-1 (2H)-one]
8 | 94 nM | COc1cnc(-c2c(OC)cnn2C2CC2)nc1NCC1CCN(c2nc(C(F)(F)F)cn2C)CC1 [Example 184, 2-(1-Cyclopropyl-4-methoxy-1H-pyrazol-5-yl)-5-methoxy-N-((1-(1-methyl-4-(trifluoromethyl)-1H-imidazol-2-yl)piperidin-4-yl)methyl)pyrimidin-4-amine]
9 | 266 nM | COc1ncnc(C2CC2)c1-c1ncc(OC(C)C)c(NCC23CCC(c4ccc(C(F)(F)F)cn4)(CC2)CC3)n1 [Example 112, 4'-Cyclopropyl-5-isopropoxy-6'-methoxy-N-((4-(5-(trifluoromethyl)pyridin-2-yl)bicyclo[2.2.2]octan-1-yl)methyl)-[2,5'-bipyrimidin]-4-amine]
10 | 1260 nM | COc1cnc(-c2ccccc2C(C)C)nc1NCc1ccc2c(c1)CN(C1CCC(=O)NC1=O)C2=O (stereo not shown) [Example 41, 3-(5-(((2-(2-Isopropylphenyl)-5-methoxypyrimidin-4-yl)amino)methyl)-1-oxoisoindolin-2-yl)piperidine-2,6-dione]
11 | 69.2 nM | Cc1ncn(C(C)C)c1-c1nc(NCc2ccc(-c3nc(C(F)(F)F)cn3C)cc2)c2occc2n1 [Example 149, 2-(1-Isopropyl-4-methyl-1H-imidazol-5-yl)-N-(4-(1-methyl-4-(trifluoromethyl)-1H-imidazol-2-yl)benzyl)furo[3,2-d]pyrimidin-4-amine]
12 | 77 nM | COc1ncnc(C2CC2)c1-c1nc(NCc2ccc3c(c2)CCN(C(C)C)C3=O)c2occc2n1 [Example 115, 6-(((2-(4-Cyclopropyl-6-methoxypyrimidin-5-yl)furo[3,2-d]pyrimidin-4-yl)amino)methyl)-2-isopropyl-3,4-dihydroisoquinolin-1(2H)-one]

Row | SMILES | IC50
13 | COc1cnc(-c2cccc3c2N(C)CC3)nc1NCc1ccc(-n2nc(C(F)(F)F)cc2C)cc1 [Example 146] | 18 nM
